What was measured:
[1] = tested on: BDNF; details: 1 mg/kg IP twice daily for two weeks; cited from earlier work
[2] = tested on: subject diagnosed with Rett Syndrome; assay: Example 1: liquid formulation given to a subject with Rett Syndrome; assay type: in vivo, human; details: 5 mL of a liquid formulation (0.2 mg/mL)
Experimental: A subject diagnosed with Rett Syndrome was administered 5 mL of a liquid formulation (0.2 mg/mL).

[3] = tested on: subject diagnosed with Rett Syndrome; assay: Example 6: liquid formulation given to a subject with Rett Syndrome; assay type: in vivo, human; details: 1 mL of a liquid formulation (0.2 mg/mL)
Experimental: A subject, diagnosed with Rett Syndrome is administered 1 mL of a liquid formulation (0.2 mg/mL).

[4] = tested on: Fmr1 knockout 2 mice, KO2; details: 1 mg/kg IP twice daily for two weeks; cited from earlier work
[5] = tested on: pERK; assay: pERK levels in peripheral lymphocytes of Fmr1 KO2 mice (flow cytometry); assay type: in vivo; details: 1 mg/kg IP twice daily for two weeks, 7 per group, t-test p=0.046, post-hoc p=0.096
Experimental: (§1) In the aforementioned study by Reyes et al., ANAVEX2-73 or saline were administered twice daily at a dose of 1 mg/kg IP, to 2-month-old Fmr1 KO2 mice and wild type counterparts (N=10 mice per group, 40 mice total; for blood sample analyses: 5-7 mice per group) for two weeks. Brain samples were harvested for biochemical and molecular studies, blood samples were collected at baseline and on the last day of the behavioral assessments. Complementary cell signaling analyses were also conducted. These analyses were important because of their relevance to both preclinical and clinical research in FXS. Peripheral lymphocytes were isolated and stimulated with Phorbol-12-Myristate-13-Acetate in a buffer without phosphatase inhibitors but with U0126 (inhibitor of MAPK kinase). […] Resuspended cells were analyzed in a Coulter XL3 flow cytometer. […] Levels of pAkt and pERK were first characterized in terms of distribution, by the Shapiro-Wilk test of normality and Levene's and Bartlett's tests, which determined that all data were distributed normally and had equal variances. […] Once a significant difference was found, a two-way univariate ANOVA with genotype and treatment as between-subject factors, followed by a Tukey's post-hoc test, evaluated the differences between drug-treated and vehicle-treated WT and Fmr1 KO2 mice. […]

[6] = tested on: glutamate biomarker in plasma; assay: Example 5: glutamate biomarker in plasma of Rett Syndrome subjects; assay type: in vivo, human; details: week 0 vs week 7; Wilcoxon p (2-tailed)=0.046
Description: In one aspect, the method further comprises measuring, or having measured or obtained a baseline biomarker level in the subject prior to treatment with ANAVEX2-73 as described herein, wherein the biomarker comprises plasma glutamate, gamma aminobutyric acid (GABA), PI3K, pAkt, mTOR, pMAPK, pERK, or any combinations thereof, and measuring or having measured or obtained at least a second level of the biomarker following a period of treatment with ANAVEX2-73 as described herein. […]
(§2) For efficacy, the following parameters were measured in the female subjects: Rett Syndrome Behavior Questionare (RSBQ), Clinical Global Impressions (CGI-I), hand behaviors (RSBQ), breathing problems (RSBQ), waking during sleep (RSBQ), and glutamate biomarker, and GABA biomarkers.
Evaluation of the efficacy was measured as a comparison from baseline (week 0), week 4, and to end of treatment (week 7). Blood plasma samples were analyzed at week 0 and at week 7 to measure the levels of glutamate and GABA biomarkers. […]

[7] = tested on: pAkt; assay: pAkt levels in peripheral lymphocytes of Fmr1 KO2 mice (flow cytometry); assay type: in vivo
Experimental: as §1

[8] = tested on: female subjects diagnosed with Rett Syndrome; assay: Example 5: 7-week daily treatment of Rett Syndrome subjects (RSBQ, CGI-I); assay type: in vivo, human
Experimental: Six female subjects ranging from 16 to 22 years of age diagnosed with Rett Syndrome were administered 5 mg ANAVEX2-73 liquid formulation (1 m_of a 5 mg/mI_ANAVEX2-73 solution) daily for a total daily dose of […], over a period of 7 weeks.
as §2
Evaluation of the efficacy was measured as a comparison from baseline (week 0), week 4, and to end of treatment (week 7). Blood plasma samples were analyzed at week 0 and at week 7 to measure the levels of glutamate and GABA biomarkers. The evaluation of efficacy used a two-tailed statistical analysis.

[9] = tested on: healthy male volunteers; details: cited from earlier work
[10] = physchem; assay type: physicochemical
Description: Dosage formulations used in the disclosed methods comprise a therapeutically effective amount of ANAVEX2-73, the crystalline HCI salt of tetrahydro-N,N-dimethyl-2,2-diphenyl-3-furanmethanamine, or tetrahydro-N,N-dimethyl-2,2-diphenyl-3-furanmethanamine hydrochloride (IUPAC name: 1-(2,2-diphenyloxolan-3-yl)-A/,A/-dimethylmethanamine hydrochloride). […] Thus ANAVEX2-73 (used herein to refer to the HCI salt or the free base) is highly amenable to incorporation in the dosage formulations disclosed herein. For example, ANAVEX2-73 as either the HCI salt or the free base has a relatively low molecular weight (<400 Da), and is thus well suited for transmucosal or transdermal delivery, or rapid oral delivery. ANAVEX2-73 has a pKa around 8-9, which also makes it well-suited for transmucosal delivery. Therapeutically effective doses of ANAVEX2-73 are well suited for various thin film formulations, including oral and transdermal thin film formulations.

## CN(C)CC1CCOC1(c1ccccc1)c1ccccc1.Cl (stereo not drawn) [ANAVEX2-73, tetrahydro-N,N-dimethyl-2,2-diphenyl-3-furanmethanamine hydrochloride]
[1]
  BDNF levels in the hippocampus: normalized
[2]
  cognition: improvement
  motor skills: improvement
[3]
  CGI-I index: improvement
  Rett Syndrome Behavior Questionnaire (RSBQ): improvement
[4]
  three neurobehavioral phenotypes (open field test, contextual fear conditioning, marble-burying): marked improvement or normalization
[5]
  pERK levels, drug-treated vs vehicle-treated Fmr1 KO2 mice: mildly reduced
[6]
  levels of glutamate biomarker in plasma: decreased significantly
[7]; 1 mg/kg IP twice daily for two weeks, 5 animals per group, p=0.01
  pAkt levels, drug-treated vs vehicle-treated Fmr1 KO2 mice: significantly lower
[7]; ANOVA
  pAkt levels, drug-treated mutant mice vs vehicle-treated WT mice: comparable
[8]; after 7 weeks, p=0.003
  RSBQ and CGI-I: reduction
[8]; all six subjects, 5 mg liquid formulation daily, week 0 vs week 7
  improvement in the RSBQ (total score): over 30%
[8]; compared to week 0, p=0.042
  breathing problems (RSBQ): improvement
  hand behaviors (RSBQ): improvement
  waking during sleep (RSBQ): improvement
[9]; ascending single oral doses of 1, 10, 30, 40, 50 and 55 mg, healthy subjects
  safety and tolerability: safe and well tolerated
[9]; at highest doses
  observed adverse events: only moderate and reversible dizziness and headache
[9]; human, in vivo, po
  minimum intolerable dose (MID): 60 mg
[9]; single ascending oral doses
  serious adverse events: No serious adverse events occurred
[9]; single oral dose, based on frequency and intensity of adverse events
  maximum tolerable dose (MTD): 55 mg
[10]
  chemical stability: excellent
  pKa: 8 to 9
  solubility in organic solvents: soluble in almost all organic solvents
  water solubility: high

Source: patent US12558340B2, “ANAVEX2-73 for the treatment of genetic neurodevelopmental disorders” (ANAVEX LIFE SCIENCES CORP., priority 2019, dated 2026)
